Several values for one entry are separate records, joined by “and”; a condition that tells them apart may be missing. Equal entries are not always repeated. Where two headings read alike, the source gives them in different places.
Columns and labels:
[1] = Tissue distribution after oral administration; assay type: in vivo, Wistar rats; settings: oral 180 mg/kg
Method: Five rats for each duration, 2, 24, 48 and 96 h post-dose, were sacrificed by decapitation after administration of Compound 1. The whole brain, heart, liver, spleen, lung, kidney, uterus, testis, ovary, epididymis, stomach, intestine, pancreas, thymus, fat, and skeletal muscle were rapidly dissected and harvested. All tissues and organs were weighed on an analytical balance and frozen at −20°C until analysis.
The tissue samples (except for fat and pancreas) were aliquots into 0.1 g and dipped in 3 mL concentrated HNO3 in test tubes.
(§1) Feces, fat and pancreas samples were aliquots into 0.1 g and dipped in 1 mL concentrated H2SO4 in test tubes. […] 3 mL concentrated HNO3was added at 120°C for 12 h until thorough dissolution.
(§2) Concentrations of Compound 1 were determined by atomic spectrometry. Samples were analyzed directly by ICP-MS. Polyoxometalate concentrations were estimated directly from measured tungsten concentrations.

[2] = Urine and feces excretion after oral administration; assay type: in vivo, Wistar rats; settings: oral 180 mg/kg
Method: Rats were placed in metabolism cages during the experiment to facilitate urine and feces collection. Urine and feces were collected during 0–1 h, 1–2, 2–4, 4–8, 8–12, 12–24, 24–48 and […]. Urine volume and feces weight were measured, and samples were frozen at −20°C until analysis.
(§3) The urine, bile, postdialysis serum and buffer samples were aliquots into 0.1 mL, treated in the same way as plasma samples.
as §1, §2

[3] = Bile excretion after oral administration (bile duct cannulation); assay type: in vivo, Rats; settings: oral 180 mg/kg, % of the drug tested
Method: Bile excretion: Rats (n = 6, male and female in equal) were anesthetized with diethyl ether, and bile duct were cannulated with a polyethylene tube. After recovery from anesthesia, rates were orally administered Compound 1 at a dose of 180 mg/kg BW. The bile samples were collected during 0–1, 1–2, 2–4, 4–8, 8–12, 12–24 and 24–48 h by bile duct cannulation. The bile volume was measured, and samples were frozen at −20°C until analysis.
as §3, §2

rat plasma protein = assay: Plasma protein binding by equilibrium dialysis; assay type: in vitro ADME; settings: for Protein binding rate, Mean: six parallel samples
Method: Various amounts of Compound 1 were added to pooled male rat serum to yield concentrations of 9, 18 and 36 mg/mL. The dialysis membrane was Spectrapor II (Beijing Dingguo Changsheng Biotechnology Co. Ltd, China) with a molecular weight cutoff of 12,000 to 14,000. […] Dialyzed serum and buffer volumes were collected and frozen at −20°C until analysis, and binding data were corrected for fluid shifts that occurred during dialysis. Experiments were done in six parallel samples. The following formula was used to calculate plasma protein binding rate of Compound 1 under different concentrations: [drawing 1]
Cplasma: concentration of Compound 1;
Cbuffer: concentration of Compound 1 in buffer
as §3

[4] = rat, in vivo, iv, 180 mg/kg
[5] = rat, in vivo; for AUC0–96 (area under the curve up to 96 h) / AUC0–∞ (area under the total concentration-time curve) / CL (systemic clearance) / Cmax (maximum concentration) / MRT (mean residence time) / Tmax (time of peak concentration) / Vd (steady-state volume of distribution) / ke (elimination rate constant) / t1/2 (half-life): po
hepatitis B virus = test system: hepatitis B virus; design: method as in PMID 22264474; settings: cited from earlier work
[6] = design: method as in earlier work; settings: cited from earlier work

Q: Which “content in kidney and liver relative to the other tissues” value [1] does the source give for Cs2K4Na[SiW9Nb3O40].H2O [Compound 1] here?
A: 10–70 times

Q: What about the “deposition in the brain” value [1] of the same substance?
A: Less deposition

Q: And the “tissue with highest deposition” value ([1]; 16 tissues)?
A: kidney, followed by the stomach, intestine and liver

Q: What about the “content in tissues at 96 h relative to peak content” value ([1]; 96 h) of the same substance?
A: less than 10%

Q: What about the “total excreted, % of the total amount administered” value ([2]; till 48 h) of the same substance?
A: about 30.84%

Q: And the “total excreted, % of the total amount administered” value ([2]; till 72 h)?
A: about 31.1%

Q: And the “accumulative excretion rate, bile” value [3]?
A: about 0.42%

Q: What about the “extent of binding to rat plasma protein” value (rat plasma protein; 36 mg/ml) of the same substance?
A: moderately bound

Q: What about the “extent of binding to rat plasma protein” value (rat plasma protein; 9–18 mg/ml) of the same substance?
A: highly bound

Q: And the “Protein binding rate (single samples)” value (rat plasma protein; added concentration 9 mg/mL, rat serum, dialysis 48 h, 37°C, pH 7.4)?
A: 47.79% and 54.71% and 73.72% and 62.68% and 67.76% and 66.13%

Q: And the “Protein binding rate, Mean” value (rat plasma protein; added concentration 9 mg/mL, dialysis 48 h)?
A: 62.13%

Q: And the “Protein binding rate, Mean” value (rat plasma protein; added concentration 18 mg/mL, dialysis 48 h)?
A: 71.20%

Q: What about the “Protein binding rate, Mean” value (rat plasma protein; added concentration 36 mg/mL, dialysis 48 h) of the same substance?
A: 49.00%

Q: What about the “AUC0–96 (area under the curve up to 96 h)” value [4] of the same substance?
A: 2549 ± 327.3 µg·h/mL

Q: And the “AUC0–∞ (area under the total concentration-time curve)” value (“AUC0–∞” below) [4]?
A: 2965 ± 342.8 µg·h/mL

Q: What about the “CL (systemic clearance)” value [4] of the same substance?
A: 15.34 ± 1.695 mL/h

Q: And the “Cmax (maximum concentration)” value [4]?
A: 235.4 ± 66.91 µg/mL

Q: What about the “MRT (mean residence time)” value [4] of the same substance?
A: 47.05 ± 3.529 h

Q: What about the “Tmax (time of peak concentration)” value [4] of the same substance?
A: 8.34 ± 5.16 min

Q: And the “Vd (steady-state volume of distribution)” value [4]?
A: 679.7 ± 114.7 mL

Q: And the “compartment model fitted by the pharmacokinetic behavior” value [4]?
A: two compartment model

Q: And the “ke (elimination rate constant)” value [4]?
A: 0.023 ± 0.004 h⁻¹

Q: And the “t1/2 (half-life)” value [4]?
A: 30.76 ± 4.658 h

Q: And the Tmax range [5]?
A: 6 to 180 min

Q: And the half-life range [5]?
A: 20 to 30 h

Q: What about the absolute bioavailability ([5]; 180 mg/kg) of the same substance?
A: 14.67%

Q: What about the “AUC0–96 (area under the curve up to 96 h)” value ([5]; 45 mg/kg) of the same substance?
A: 150.9 ± 87.15 µg·h/mL

Q: And the “AUC0–∞” value ([5]; 45 mg/kg)?
A: 165.1 ± 94.98 µg·h/mL

Q: And the “CL (systemic clearance)” value ([5]; 45 mg/kg)?
A: 86.96 ± 42.45 mL/h

Q: What about the “Cmax (maximum concentration)” value ([5]; 45 mg/kg) of the same substance?
A: 11.13 ± 8.370 µg/mL

Q: And the “MRT (mean residence time)” value ([5]; 45 mg/kg)?
A: 36.45±4.495 H

Q: And the “Tmax (time of peak concentration)” value ([5]; 45 mg/kg)?
A: 2.000±0.632 H

Q: And the “Vd (steady-state volume of distribution)” value ([5]; 45 mg/kg)?
A: 3437 ± 1593 mL

Q: What about the “ke (elimination rate constant)” value ([5]; 45 mg/kg) of the same substance?
A: 0.025 ± 0.002 h⁻¹

Q: What about the “t1/2 (half-life)” value ([5]; 45 mg/kg) of the same substance?
A: 27.91±2.606 H

Q: What about the “AUC0–96 (area under the curve up to 96 h)” value ([5]; 180 mg/kg) of the same substance?
A: 373.9 ± 112.7 µg·h/mL

Q: What about the “AUC0–∞” value ([5]; 180 mg/kg) of the same substance?
A: 410.1 ± 128.5 µg·h/mL

Q: And the “CL (systemic clearance)” value ([5]; 180 mg/kg)?
A: 117.1 ± 29.49 mL/h

Q: What about the “Cmax (maximum concentration)” value ([5]; 180 mg/kg) of the same substance?
A: 30.85 ± 14.25 µg/mL

Q: And the “MRT (mean residence time)” value ([5]; 180 mg/kg)?
A: 35.42±5.940 H

Q: What about the “Tmax (time of peak concentration)” value ([5]; 180 mg/kg) of the same substance?
A: 1.833±0.753 H

Q: What about the “Vd (steady-state volume of distribution)” value ([5]; 180 mg/kg) of the same substance?
A: 4620 ± 829.9 mL

Q: And the “ke (elimination rate constant)” value ([5]; 180 mg/kg)?
A: 0.025 ± 0.003 h⁻¹

Q: And the “t1/2 (half-life)” value ([5]; 180 mg/kg)?
A: 27.88±3.221 H

Q: What about the “AUC0–96 (area under the curve up to 96 h)” value ([5]; 720 mg/kg) of the same substance?
A: 1216 ± 402.2 µg·h/mL

Q: What about the “AUC0–∞” value ([5]; 720 mg/kg) of the same substance?
A: 1316 ± 449.7 µg·h/mL

Q: What about the “CL (systemic clearance)” value ([5]; 720 mg/kg) of the same substance?
A: 153.7 ± 62.35 mL/h

Q: And the “Cmax (maximum concentration)” value ([5]; 720 mg/kg)?
A: 49.29 ± 9.939 µg/mL

Q: What about the “MRT (mean residence time)” value ([5]; 720 mg/kg) of the same substance?
A: 37.57±4.676 H

Q: What about the “Tmax (time of peak concentration)” value ([5]; 720 mg/kg) of the same substance?
A: 2.167±0.753 H

Q: And the “Vd (steady-state volume of distribution)” value ([5]; 720 mg/kg)?
A: 5583 ± 2416 mL

Q: What about the “ke (elimination rate constant)” value ([5]; 720 mg/kg) of the same substance?
A: 0.028 ± 0.003 h⁻¹

Q: What about the “t1/2 (half-life)” value ([5]; 720 mg/kg) of the same substance?
A: 24.92±2.178 H

Q: What about the “secretion of HBV antigens and HBV DNA” value (hepatitis B virus; HepG2.2.15 cells) of the same substance?
A: effectively suppressed

Q: And the “activity against HBV” value (hepatitis B virus; HepG 2.2.15)?
A: high activity against HBV

Q: What about the toxicity (hepatitis B virus; HepG 2.2.15) of the same substance?
A: low toxicity

Q: What about the reproductive toxicity [6] of the same substance?
A: no obvious reproductive toxicity

— PMC4055585, “Pharmacokinetics of Anti-HBV Polyoxometalate in Rats” (PLoS ONE, 2014)
